Assay [1] deals with T1, Cea1A (=KpFlo1A) (Komagataella pastoris, UniProt A0A1B2J5V1).
T1 construct: gene ATY40_BA7500007; A domain, D78-E296, N-terminally His6-tagged
In words: ITC and co-crystal structure ([…] Å). In kind it is binding.

The target of assay [2] is T1, Cea1A (=KpFlo1A). Put plainly: ITC and co-crystal structure ([…] Å). The assay is classed as binding. As to conditions: read-out: Cea1A•N,N′-diacetylchitobiose.
Assay [3] concerns the target T1, Cea1A (=KpFlo1A). Put plainly: weak binding KD (Supplementary Figure S6), validated by fluorescence titration.

T1 sequence (A0A1B2J5V1 entry or part of it): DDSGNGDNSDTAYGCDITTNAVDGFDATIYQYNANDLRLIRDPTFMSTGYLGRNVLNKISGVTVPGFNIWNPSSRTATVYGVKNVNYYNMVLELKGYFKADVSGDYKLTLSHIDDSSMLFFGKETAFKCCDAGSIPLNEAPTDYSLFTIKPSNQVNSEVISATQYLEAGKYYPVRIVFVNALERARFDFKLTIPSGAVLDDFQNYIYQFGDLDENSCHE

Consider `CC(=O)N[C@@H]1[C@@H](O)[C@H](O)[C@@H](CO)O[C@H]1O` [GlcNAc], for which the Kd at Cea1A (=KpFlo1A) [1] came to 7.67 ± 0.49 µM. With `CC(=O)N[C@H]1[C@H](O[C@H]2[C@H](O)[C@@H](NC(C)=O)C(O)O[C@@H]2CO)O[C@H](CO)[C@@H](O)[C@@H]1O` (stereo partly drawn) [N,N′-diacetylchitobiose], the Kd at Cea1A (=KpFlo1A) [2] turned out to be 13.1 ± 3.56 µM. `OC[C@H]1OC(O)[C@H](O)[C@@H](O)[C@@H]1O` (stereo partly drawn) [glucose] gave a Kd at Cea1A (=KpFlo1A) [3] of 2380 µM.
